# Laboratory results: US20180179198A1, “TRICYCLIC MODULATORS OF TNF SIGNALING” (AbbVie Inc., priority 2015, published 2018)
# Target: TNFα trimer (Homo sapiens, UniProt P01375)
# Experiment: TNFα FP Competitive Binding Assay
# Conditions: TNFα FP competitive binding assay; class symbols A/B/C; read-out: TNF IC50
# In short: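 Compounds, 12-point 1:3 dilutions topping at 100 μM (2.0% DMSO) or 338 μM (3.4% DMSO) final, compete with 1 nM fluorescent probe for 20 nM TNFα trimer in HEPES/NaCl/EDTA/Triton buffer. After 18-24 h incubation at 37 °C plus 1 h rt equilibration, background-subtracted polarization is read and fitted with variable slope.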
# TNFα trimer, sequence (P01375 77-233 limits assumed): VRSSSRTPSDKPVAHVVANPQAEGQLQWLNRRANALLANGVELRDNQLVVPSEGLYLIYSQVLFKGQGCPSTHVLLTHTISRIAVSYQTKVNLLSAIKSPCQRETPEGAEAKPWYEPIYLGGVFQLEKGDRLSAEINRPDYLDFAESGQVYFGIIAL
row,IC50,SMILES
1,< 1000 nM,C[C@@H]1CN(c2ncc(-c3ccc4nc5n(c4n3)C3(COC5)COc4ccccc43)cn2)CCN1C(=O)CO (stereo partly shown) [BH.3]
2,1000 to 10000 nM,c1ccc(C2COCc3nc4ccc(-c5cnc(N6CCCOCC6)nc5)nc4n32)cc1 (stereo not shown) [AZ.3]
3,< 1000 nM,COc1ccccc1C1CCc2nc3ccc(-c4cnc(N5CCC(O)CC5)nc4)nc3n21 (stereo not shown) [AD.1]
4,< 1000 nM,Fc1cccc(C2COCc3nc4ccc(-c5cnc(N6CCCOCC6)nc5)cc4n32)c1 (stereo not shown) [X.3]
5,< 1000 nM,O=C(CO)N1CCN(c2ncc(-c3ccc4nc5n(c4n3)C(c3ccccc3)COC5)cn2)CC1 (stereo not shown) [AZ.7]
6,< 1000 nM,OCC1(F)CCN(c2ncc(-c3ccc4nc5n(c4n3)C3(CCc4ccccc43)COC5)cn2)CC1 (stereo not shown) [AV.7]
7,< 1000 nM,COc1ccccc1C1CCc2nc3ccc(-c4cnc(N5CCOCC5)nc4)cn3c21 (stereo not shown) [AG.1]
8,< 1000 nM,COc1ccccc1C1CCCc2nc3ccc(-c4cnc(N5CCCOCC5)nc4)cn3c21 (stereo not shown) [AJ.7]
9,10000 to 100000 nM,c1ccc(C2COCc3nc4ccc(-c5ccc(NCCN6CCOCC6)nc5)cc4n32)cc1 (stereo not shown) [T.28]
10,< 1000 nM,COc1ccccc1[C@H]1CCc2nc3ccc(-c4cnc(N5CCN(C(=O)CO)[C@H](C)C5)nc4)nc3n21 [AO.4]
11,1000 to 10000 nM,CCOC(=O)CNc1ncc(-c2ccc3nc4c(n3c2)C(c2ccccc2OC)CCCC4)cn1 (stereo not shown) [S.2]

# Continued, molecule first:
row,SMILES,IC50
1,CC(C)(O)Cn1ccc(-c2ccc3nc4n(c3n2)[C@@H](c2ccccc2)CC4)cc1=O [AK.3],10000 to 100000 nM
2,O=C1NCC2CN(c3ncc(-c4ccc5nc6n(c5n4)C(c4cccc(F)c4)COC6)cn3)CCN12 (stereo not shown) [AH.8],< 1000 nM
3,Cc1ccc(C)c([C@H]2CCc3nc4ccc(-c5cnc(C(C)(C)O)nc5)cc4n32)c1 [Y.8],< 1000 nM
4,COC(=O)C1CCC(Oc2cc(-c3ccc4nc5n(c4n3)[C@@H](c3ccccc3)CC5)ccn2)CC1 (stereo partly shown) [AS.4],1000 to 10000 nM
5,c1ccc([C@H]2CCc3nc4ccc(-c5cnn(C6CCOCC6)c5)nc4n32)cc1 [AW.6],1000 to 10000 nM
6,CC(C)Oc1ccc(-c2ccc3nc4n(c3c2)C(c2ccccc2)COC4)cn1 (stereo not shown) [T.5],1000 to 10000 nM
7,CC(C)(O)c1ncc(-c2ccc3nc4n(c3n2)[C@]2(CCOc3ccccc32)COC4)cn1 [Y.14],< 1000 nM
8,OC1CCC(Oc2cc(-c3ccc4nc5n(c4n3)[C@@H](c3ccccc3)CC5)ccn2)C1 (stereo partly shown) [AQ.1],< 1000 nM
9,c1ccc(C2COCc3nc4ccc(-c5cnc(NC6CCCC6)nc5)cc4n32)cc1 (stereo not shown) [T.17],1000 to 10000 nM
10,OC1CCC(Oc2cc(-c3ccc4nc5n(c4n3)C3(COC5)COc4ccccc43)ccn2)C1 (stereo not shown) [AX.3],< 1000 nM
11,OC1CC(Nc2ncc(-c3ccc4nc5n(c4n3)C3(COC5)COc4ccccc43)cn2)C1 (stereo not shown) [AU.2],1000 to 10000 nM

# Same assay, conditions: fluorescence polarization competition; 20 nM TNFα trimer, 1 nM OregonGreen488 probe; read-out: TNF IC50 (TNFα FP binding assay IC50)
row,IC50,SMILES
1,< 1000 nM,"c1ccc(C2COCc3nc4ccc(-c5cnc(N6CCOCC6)nc5)cc4n32)cc1 (stereo not shown) [Example 19, 7-(2-Morpholinopyrimidin-5-yl)-4-phenyl-3,4-dihydro-H-benzo[4,5]imidazo[2,1-c][1,4]oxazine]"
2,1000 to 10000 nM,CC1CN(c2ncc(-c3ccc4nc5n(c4c3)[C@@H](c3ccccc3)COC5)cn2)CC(C)O1 (stereo partly shown) [G.23]
3,< 1000 nM,"C[C@H]1CN(c2ncc(-c3ccc4nc5n(c4n3)C3(COC5)COc4ccccc43)cn2)CCN1C(=O)CO (stereo partly drawn) [Example 67, 1-((2S)-4-(5-(2H,6′H,8′H-Spiro[benzofuran-3,9′-pyrido[3′,2′:4,5]imidazo[2,1-c][1,4]oxazin]-2′-yl)pyrimidin-2-yl)-2-methylpiperazin-1-yl)-2-hydroxyethan-1-one]"
4,< 1000 nM,COc1ccccc1C1CCCc2nc3ccc(-c4ccc(OCC(=O)O)nc4)cn3c21 (stereo not shown) [R.1]
5,< 1000 nM,OCCC1(O)CCN(c2ncc(-c3ccc4nc5n(c4c3)[C@@H](c3ccccc3)COC5)cn2)CC1 [G.20]
6,< 1000 nM,"COc1ccccc1C1COCc2nc3ccc(-c4cnc(C(C)(C)O)nc4)cn3c21 (stereo not shown) [Example 32, 2-(5-(4-(2-Methoxyphenyl)-3,4-dihydro-1H-pyrano[3′,4′:4,5]imidazo[1,2-a]pyridin-7-yl)pyrimidin-2-yl)propan-2-ol]"
7,1000 to 10000 nM,O=C1CN(c2ncc(-c3ccc4nc5n(c4c3)C(c3ccccc3)CCC5)cn2)CCN1 (stereo not shown) [H.3]
8,< 1000 nM,c1ccc([C@H]2COCc3nc4ccc(-c5cnc(N6[C@H]7CCC[C@@H]6CNCC7)nc5)cc4n32)cc1 [Example 37]
9,1000 to 10000 nM,"COc1ccccc1C1(O)CCCc2nc3ccc(-c4cnc(N5CCOCC5)nc4)cn3c21 (stereo not shown) [Example 5, 9-(2-Methoxyphenyl)-2-(2-morpholinopyrimidin-5-yl)-6,7,8,9-tetrahydrobenzo[4,5]imidazo[1,2-a]pyridin-9-ol]"
10,10000 to 100000 nM,c1ccc([C@H]2COCc3nc4ccc(-c5cnc(N6CC(N7CCOCC7)C6)nc5)cc4n32)cc1 [G.17]
11,< 1000 nM,CS(=O)(=O)N1CCN(c2ncc(-c3ccc4nc5n(c4c3)[C@@H](c3ccccc3)COC5)cn2)CC1 [G.24]
12,1000 to 10000 nM,c1ccc([C@H]2COCc3nc4ccc(-c5cnc(N6CCC7(COC7)C6)nc5)cc4n32)cc1 [G.16]
13,1000 to 10000 nM,"c1ccc(C2OCCc3nc4ccc(-c5cnc(N6CCOCC6)nc5)nn4c32)cc1 (stereo not shown) [Example 56, 2-(2-morpholinopyrimidin-5-yl)-9-phenyl-7,9-dihydro-6H-pyrano[4′,3′:4,5]imidazo[1,2-b]pyridazine]"
14,1000 to 10000 nM,Cc1ccc(C2(O)CCCCc3nc4ccc(-c5cnc(N6CCOCC6)nc5)cn4c32)cc1 (stereo not shown) [J.7]
15,< 1000 nM,"CC(=O)N1CCN(c2ncc(-c3ccc4nc5n(c4n3)[C@@H](c3ccccc3)CC5)cn2)C[C@H]1C [Example 41, 1-((R)-2-Methyl-4-(5-((R)-8-phenyl-7,8-dihydro-6H-pyrrolo[2′,1′:2,3]imidazo[4,5-b]pyridin-2-yl)pyrimidin-2-yl)piperazin-1-yl)ethanone]"
16,< 1000 nM,"COc1ccccc1C1CCOc2nc3ccc(-c4ccnc(O[C@H]5CC[C@H](O)CC5)c4)cn3c21 (stereo partly drawn) [Example 57, trans-4-((4-(4-(2-Methoxyphenyl)-3,4-dihydro-2H-pyrano[2′,3′:4,5]imidazo[1,2-a]pyridin-7-yl)pyridin-2-yl)oxy)cyclohexanol]"
17,< 1000 nM,"c1ccc2c(c1)OCC21COCc2nc3ccc(-c4cnc(N5CCOCC5)nc4)nc3n21 (stereo not shown) [Example 51, 2′-(2-Morpholinopyrimidin-5-yl)-6′,8′-dihydro-2H-spiro[benzofuran-3,9′-pyrido[3′,2′:4,5]imidazo[2,1-c][1,4]oxazine]]"
18,< 1000 nM,c1ccc([C@H]2COCc3nc4ccc(-c5cnc(N6CCC7(CC6)COC7)nc5)cc4n32)cc1 [G.8]
19,< 1000 nM,c1ccc([C@H]2COCc3nc4ccc(-c5cnc(N6CCn7cnnc7C6)nc5)cc4n32)cc1 [G.28]
20,< 1000 nM,"NC1CC2(CCN(c3ncc(-c4ccc5nc6n(c5c4)[C@@H](c4ccccc4)COC6)cn3)CC2)C1 [Example 36, (S)-7-(5-(4-Phenyl-3,4-dihydro-1H-benzo[4,5]imidazo[2,1-c][1,4]oxazin-7-yl)pyrimidin-2-yl)-7-azaspiro[3.5]nonan-2-amine]"
21,1000 to 10000 nM,O=C(O)CC1CCCN(c2ncc(-c3ccc4nc5n(c4c3)[C@@H](c3ccccc3)COC5)cn2)C1 (stereo partly shown) [G.3]
22,< 1000 nM,NS(=O)(=O)N1CCN(c2ncc(-c3ccc4nc5n(c4c3)[C@@H](c3ccccc3)COC5)cn2)CC1 [G.12]
23,1000 to 10000 nM,COc1ccc(C2(O)CCCCc3nc4ccc(-c5cnc(N6CCOCC6)nc5)cn4c32)cc1 (stereo not shown) [J.6]

# More lines, now with the values behind:
row,SMILES,IC50
1,NC(=O)c1ccc(-c2ccc3nc4n(c3c2)C(c2ccccc2)CC4)cc1 (stereo not shown) [A.36],1000 to 10000 nM
2,c1ccc(C2CCc3nc4ccc(-c5ccc(N6CCNCC6)nc5)cc4n32)cc1 (stereo not shown) [A.17],1000 to 10000 nM
3,O=C1CN(c2ncc(-c3ccc4nc5n(c4n3)C(c3cccc(F)c3)CC5)cn2)CCN1 (stereo not shown) [M.3],< 1000 nM
4,"CC(=O)N1CCN(c2ncc(-c3ccc4nc5n(c4n3)[C@@H](c3cccc(CO)c3)CC5)cn2)C[C@H]1C [Example 44, 1-((R)-4-(5-((R)-8-(3-(Hydroxymethyl)phenyl)-7,8-dihydro-6H-pyrrolo[2′,1′:2,3]imidazo[4,5-b]pyridin-2-yl)pyrimidin-2-yl)-2-methylpiperazin-1-yl)ethanone]",< 1000 nM
5,O=C1NCC2CN(c3ncc(-c4ccc5nc6n(c5n4)C(c4cccc(F)c4)CC6)cn3)CCN12 (stereo not shown) [M.5],< 1000 nM
6,CS(=O)(=O)c1cccc(-c2ccc3nc4n(c3c2)C(c2ccccc2)CC4)c1 (stereo not shown) [A.30],10000 to 100000 nM
7,"CC(C)(O)c1ncc(-c2ccc3nc4n(c3n2)C2(COC4)COc3ccccc32)cn1 (stereo not shown) [E.4, 2-(5-(6′,8′-Dihydro-2H-spiro[benzofuran-3,9′-pyrido[3′,2′:4,5]imidazo[2,1-c][1,4]oxazin]-2′-yl)pyrimidin-2-yl)propan-2-ol]",< 1000 nM
8,c1ccc(C2CCc3nc4ccc(-c5ccc6c(c5)OCO6)cc4n32)cc1 (stereo not shown) [A.37],1000 to 10000 nM
9,CCOc1cncc(-c2ccc3nc4n(c3c2)C(c2ccccc2)CC4)c1 (stereo not shown) [A.15],1000 to 10000 nM
10,c1ccc(C2CCc3nc4ccc(-c5cncnc5)cc4n32)cc1 (stereo not shown) [A.24],1000 to 10000 nM
11,CSc1ccc(-c2ccc3nc4n(c3c2)C(c2ccccc2)CC4)cn1 (stereo not shown) [A.16],1000 to 10000 nM
12,"CC(C)(O)c1ncc(-c2ccc3nc4n(c3n2)C(C)(c2ccccc2)CC4)cn1 (stereo not shown) [Example 39, 2-(5-(8-Methyl-8-phenyl-7,8-dihydro-6H-pyrrolo[2′,1′:2,3]imidazo[4,5-b]pyridin-2-yl)pyrimidin-2-yl)propan-2-ol]",< 1000 nM
13,NS(=O)(=O)c1ccc(-c2ccc3nc4n(c3c2)C(c2ccccc2)CC4)cc1 (stereo not shown) [A.6],< 1000 nM
14,CS(=O)(=O)c1cncc(-c2ccc3nc4n(c3c2)C(c2ccccc2)CC4)c1 (stereo not shown) [A.31],10000 to 100000 nM
15,CC(C)(O)c1ncc(-c2cc3c(cn2)nc2n3C(c3ccccc3)CC2)cn1 (stereo not shown) [P.2],1000 to 10000 nM
16,"O=C1NC[C@H]2CN(c3ncc(-c4ccc5nc6n(c5n4)[C@@H](c4ccccc4)CC6)cn3)CCN12 [Example 31, (S)-7-(5-((R)-8-Phenyl-7,8-dihydro-6H-pyrrolo[2′,1′:2,3]imidazo[4,5-b]pyridin-2-yl)pyrimidin-2-yl)hexahydroimidazo[1,5-a]pyrazin-3(2H)-one]",< 1000 nM
